Source: patent US11203601B2, “Tricyclic compounds as glycogen synthase kinase 3 (GSK3) inhibitors and uses thereof” (The Broad Institute, Inc., priority 2017, dated 2021)

Assays:
Assay in all cases: Carna kinome panel
Type in all cases: biochemical
ALK(L1152insT) = system: ALK(L1152insT)
Description: (§2) Briefly, a selection of compounds was screened against a panel of kinases at a single concentration of 10 μM. […] This was completed using one of two assays, depending on the kinase being examined: 1) IMAP Assay. A solution of 4× inhibitor, 4× substrate/ATP/metal solution and 2× kinase solution was prepared with assay buffer (20 mM HEPES, 0.01% Tween-20, 2 mM DTT, pH 7.4) and mixed, then incubated in 384-well black plates for 1 hour at room temperature. The IMAP binding reagent (IMAP Screening Express kit; Molecular Devices) was added to each well and incubated for 30 minutes. […] 2) Off-Chip Mobility Shift Assay (MSA). A solution of 4× inhibitor, 4× substrate/ATP/metal solution and 2× kinase solution was prepared with assay buffer (20 mM HEPES, 0.01% Triton X-100, 2 mM DTT, pH 7.5) and mixed, then incubated in 384-well plates for 1 or 5 hours depending on the kinase, at room temperature. Termination buffer (QuickScout Screening assist MSA; Carna Biosciences) was added to each well. The entire reaction mixture was then applied to a LabChip3000 system (Caliper Life Science), and the product and substrate peptide peaks were separated and quantified. […] The entire reaction mixture was then applied to a LabChip3000 system (Caliper Life Science), and the product and substrate peptide peaks were separated and quantified.

BRAF(V600E)_Cascade = BRAF(V600E)_Cascade (Homo sapiens (Human), UniProt P15056, V600E); settings: read-out: % Inhibition at 10 μM of the test compound
PAK2 = PAK2 (Homo sapiens (Human), UniProt Q13177); settings: read-out: % Inhibition at 10 μM of the test compound
CHK2 = CHK2 (Homo sapiens (Human), UniProt O96017); settings: read-out: % Inhibition at 10 μM of the test compound
PLK2 = PLK2 (Homo sapiens (Human), UniProt Q9NYY3); settings: read-out: % Inhibition at 10 μM of the test compound
RET = RET (Homo sapiens (Human), UniProt P07949); settings: read-out: % Inhibition at 10 μM of the test compound
EPHA1 = EPHA1 (Homo sapiens (Human), UniProt P21709); settings: read-out: % Inhibition at 10 μM of the test compound
PKCζ = PKCζ (Homo sapiens (Human), UniProt Q05513); settings: read-out: % Inhibition at 10 μM of the test compound
MUSK = MUSK (Homo sapiens (Human), UniProt O15146); settings: read-out: % Inhibition at 10 μM of the test compound
IRAK1 = IRAK1 (Homo sapiens (Human), UniProt P51617); settings: read-out: % Inhibition at 10 μM of the test compound
HIPK4 = HIPK4 (Homo sapiens (Human), UniProt Q8NE63); settings: read-out: % Inhibition at 10 μM of the test compound
CaMK2γ = CaMK2γ (Homo sapiens (Human), UniProt Q13555); settings: read-out: % Inhibition at 10 μM of the test compound
JNK3 = JNK3 (Homo sapiens (Human), UniProt P53779); settings: read-out: % Inhibition at 10 μM of the test compound
PDHK2 = PDHK2 (Homo sapiens (Human), UniProt Q15119); settings: read-out: % Inhibition at 10 μM of the test compound
JNK1 = JNK1 (Homo sapiens (Human), UniProt P45983); settings: read-out: % Inhibition at 10 μM of the test compound
AMPKα2/β1/γ1 = AMPKα2/β1/γ1 (Homo sapiens (Human), UniProt P54646); settings: read-out: % Inhibition at 10 μM of the test compound
p38δ = p38δ (Homo sapiens (Human), UniProt O15264); settings: read-out: % Inhibition at 10 μM of the test compound
ABL = ABL (Homo sapiens (Human), UniProt P00519); settings: read-out: % Inhibition at 10 μM of the test compound
HIPK2 = HIPK2 (Homo sapiens (Human), UniProt Q9H2X6); settings: read-out: % Inhibition at 10 μM of the test compound
CDK2/CycE1 = CDK2/CycE1 (Homo sapiens (Human), UniProt P24941)
Excerpt: (§1) 2) Off-Chip Mobility Shift Assay (MSA).

CDK3/CycE1 = CDK3/CycE1 (Homo sapiens (Human), UniProt Q00526)
Excerpt: as §1

SPHK1 = SPHK1 (Homo sapiens (Human), UniProt Q9NYA1); settings: read-out: % Inhibition at 10 μM of the test compound
SPHK2 = SPHK2 (Homo sapiens (Human), UniProt Q9NRA0); settings: read-out: % Inhibition at 10 μM of the test compound
IRAK4 = IRAK4 (Homo sapiens (Human), UniProt Q9NWZ3); settings: read-out: % Inhibition at 10 μM of the test compound
FGFR1 = FGFR1 (Homo sapiens (Human), UniProt P11362); settings: read-out: % Inhibition at 10 μM of the test compound
skMLCK = skMLCK (Homo sapiens (Human), UniProt Q9H1R3); settings: read-out: % Inhibition at 10 μM of the test compound
KIT(T670I) = KIT(T670I) (Homo sapiens (Human), UniProt P10721, T670I); settings: read-out: % Inhibition at 10 μM of the test compound
PKD1 = PKD1 (Homo sapiens (Human), UniProt Q15139); settings: read-out: % Inhibition at 10 μM of the test compound
AurA = AurA (Homo sapiens (Human), UniProt O14965); settings: read-out: % Inhibition at 10 μM of the test compound
MELK = MELK (Homo sapiens (Human), UniProt Q14680); settings: read-out: % Inhibition at 10 μM of the test compound
MAP3K2_Cascade = MAP3K2_Cascade (Homo sapiens (Human), UniProt Q9Y2U5); settings: read-out: % Inhibition at 10 μM of the test compound
BMX = BMX (Homo sapiens (Human), UniProt P51813); settings: read-out: % Inhibition at 10 μM of the test compound
PBK = PBK (Homo sapiens (Human), UniProt Q96KB5); settings: read-out: % Inhibition at 10 μM of the test compound
FGFR4(V550L) = FGFR4(V550L) (Homo sapiens (Human), UniProt P22455, V550L); settings: read-out: % Inhibition at 10 μM of the test compound
ALK = ALK (Homo sapiens (Human), UniProt Q9UM73); settings: read-out: % Inhibition at 10 μM of the test compound
TIE2 = TIE2 (Homo sapiens (Human), UniProt Q02763); settings: read-out: % Inhibition at 10 μM of the test compound
RAF1_Cascade = system: RAF1_Cascade
Description: as §2

TAK1-TAB1_Cascade = TAK1-TAB1_Cascade (Homo sapiens (Human), UniProt O43318); settings: read-out: % Inhibition at 10 μM of the test compound
DYRK1A = DYRK1A (Homo sapiens (Human), UniProt Q13627); settings: read-out: % Inhibition at 10 μM of the test compound
TRKB = TRKB (Homo sapiens (Human), UniProt Q16620); settings: read-out: % Inhibition at 10 μM of the test compound
[1] = read-out: % Inhibition at 10 μM of the test compound

Chain of HIPK2 (Q9H2X6 whole entry): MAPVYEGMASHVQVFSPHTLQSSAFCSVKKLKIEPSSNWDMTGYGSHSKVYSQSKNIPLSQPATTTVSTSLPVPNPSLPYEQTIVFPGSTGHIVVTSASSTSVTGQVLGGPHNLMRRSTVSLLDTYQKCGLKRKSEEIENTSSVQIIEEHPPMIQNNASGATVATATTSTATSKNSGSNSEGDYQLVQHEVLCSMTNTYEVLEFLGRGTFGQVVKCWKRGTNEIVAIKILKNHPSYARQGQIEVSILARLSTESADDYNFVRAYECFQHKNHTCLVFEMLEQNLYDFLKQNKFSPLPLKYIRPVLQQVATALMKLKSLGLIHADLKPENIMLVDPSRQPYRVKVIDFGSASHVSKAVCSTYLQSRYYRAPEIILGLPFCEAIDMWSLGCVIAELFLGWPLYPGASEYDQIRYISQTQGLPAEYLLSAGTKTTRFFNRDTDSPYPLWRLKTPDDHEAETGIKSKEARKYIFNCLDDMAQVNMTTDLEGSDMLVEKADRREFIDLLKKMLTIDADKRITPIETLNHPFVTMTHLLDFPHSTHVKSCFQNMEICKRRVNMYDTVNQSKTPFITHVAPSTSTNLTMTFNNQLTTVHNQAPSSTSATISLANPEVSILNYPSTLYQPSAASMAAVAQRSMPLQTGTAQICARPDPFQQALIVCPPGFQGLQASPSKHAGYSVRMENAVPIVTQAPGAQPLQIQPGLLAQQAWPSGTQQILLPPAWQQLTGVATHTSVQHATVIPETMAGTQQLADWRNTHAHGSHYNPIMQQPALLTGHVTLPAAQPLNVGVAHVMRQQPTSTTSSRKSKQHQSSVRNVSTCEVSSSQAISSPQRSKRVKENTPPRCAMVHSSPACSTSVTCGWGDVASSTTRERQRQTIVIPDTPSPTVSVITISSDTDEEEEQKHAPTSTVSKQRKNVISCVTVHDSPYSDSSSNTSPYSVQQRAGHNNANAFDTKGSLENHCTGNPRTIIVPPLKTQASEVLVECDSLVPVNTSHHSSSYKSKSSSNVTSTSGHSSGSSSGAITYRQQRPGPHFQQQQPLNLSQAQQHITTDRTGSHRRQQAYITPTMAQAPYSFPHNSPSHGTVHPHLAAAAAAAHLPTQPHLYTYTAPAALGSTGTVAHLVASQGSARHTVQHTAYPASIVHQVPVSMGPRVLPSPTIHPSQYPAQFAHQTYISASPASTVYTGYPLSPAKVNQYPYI
Chain of MUSK (O15146 24-869): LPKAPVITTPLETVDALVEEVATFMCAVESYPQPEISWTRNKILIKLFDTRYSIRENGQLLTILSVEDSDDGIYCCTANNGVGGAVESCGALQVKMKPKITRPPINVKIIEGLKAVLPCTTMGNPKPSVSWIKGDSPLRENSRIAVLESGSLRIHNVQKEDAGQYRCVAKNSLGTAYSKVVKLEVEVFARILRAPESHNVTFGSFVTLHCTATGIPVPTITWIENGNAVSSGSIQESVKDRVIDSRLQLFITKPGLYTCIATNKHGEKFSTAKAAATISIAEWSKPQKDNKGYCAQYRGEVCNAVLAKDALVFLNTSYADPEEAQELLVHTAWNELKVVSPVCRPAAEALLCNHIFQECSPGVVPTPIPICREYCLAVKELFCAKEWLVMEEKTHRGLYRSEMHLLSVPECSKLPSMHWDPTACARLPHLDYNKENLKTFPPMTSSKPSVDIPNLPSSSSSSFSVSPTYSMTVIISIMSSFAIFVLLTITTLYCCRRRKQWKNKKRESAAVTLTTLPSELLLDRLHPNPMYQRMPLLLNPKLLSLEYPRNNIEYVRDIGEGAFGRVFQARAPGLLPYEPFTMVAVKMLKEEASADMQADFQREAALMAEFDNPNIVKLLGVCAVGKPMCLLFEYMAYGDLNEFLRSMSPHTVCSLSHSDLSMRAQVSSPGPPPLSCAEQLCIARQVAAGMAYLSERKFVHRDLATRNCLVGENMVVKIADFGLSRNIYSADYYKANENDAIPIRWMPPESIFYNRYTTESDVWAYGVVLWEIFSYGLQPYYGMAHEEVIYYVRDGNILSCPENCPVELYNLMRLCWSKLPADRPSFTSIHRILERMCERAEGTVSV
Chain of ALK (Q9UM73 19-1620): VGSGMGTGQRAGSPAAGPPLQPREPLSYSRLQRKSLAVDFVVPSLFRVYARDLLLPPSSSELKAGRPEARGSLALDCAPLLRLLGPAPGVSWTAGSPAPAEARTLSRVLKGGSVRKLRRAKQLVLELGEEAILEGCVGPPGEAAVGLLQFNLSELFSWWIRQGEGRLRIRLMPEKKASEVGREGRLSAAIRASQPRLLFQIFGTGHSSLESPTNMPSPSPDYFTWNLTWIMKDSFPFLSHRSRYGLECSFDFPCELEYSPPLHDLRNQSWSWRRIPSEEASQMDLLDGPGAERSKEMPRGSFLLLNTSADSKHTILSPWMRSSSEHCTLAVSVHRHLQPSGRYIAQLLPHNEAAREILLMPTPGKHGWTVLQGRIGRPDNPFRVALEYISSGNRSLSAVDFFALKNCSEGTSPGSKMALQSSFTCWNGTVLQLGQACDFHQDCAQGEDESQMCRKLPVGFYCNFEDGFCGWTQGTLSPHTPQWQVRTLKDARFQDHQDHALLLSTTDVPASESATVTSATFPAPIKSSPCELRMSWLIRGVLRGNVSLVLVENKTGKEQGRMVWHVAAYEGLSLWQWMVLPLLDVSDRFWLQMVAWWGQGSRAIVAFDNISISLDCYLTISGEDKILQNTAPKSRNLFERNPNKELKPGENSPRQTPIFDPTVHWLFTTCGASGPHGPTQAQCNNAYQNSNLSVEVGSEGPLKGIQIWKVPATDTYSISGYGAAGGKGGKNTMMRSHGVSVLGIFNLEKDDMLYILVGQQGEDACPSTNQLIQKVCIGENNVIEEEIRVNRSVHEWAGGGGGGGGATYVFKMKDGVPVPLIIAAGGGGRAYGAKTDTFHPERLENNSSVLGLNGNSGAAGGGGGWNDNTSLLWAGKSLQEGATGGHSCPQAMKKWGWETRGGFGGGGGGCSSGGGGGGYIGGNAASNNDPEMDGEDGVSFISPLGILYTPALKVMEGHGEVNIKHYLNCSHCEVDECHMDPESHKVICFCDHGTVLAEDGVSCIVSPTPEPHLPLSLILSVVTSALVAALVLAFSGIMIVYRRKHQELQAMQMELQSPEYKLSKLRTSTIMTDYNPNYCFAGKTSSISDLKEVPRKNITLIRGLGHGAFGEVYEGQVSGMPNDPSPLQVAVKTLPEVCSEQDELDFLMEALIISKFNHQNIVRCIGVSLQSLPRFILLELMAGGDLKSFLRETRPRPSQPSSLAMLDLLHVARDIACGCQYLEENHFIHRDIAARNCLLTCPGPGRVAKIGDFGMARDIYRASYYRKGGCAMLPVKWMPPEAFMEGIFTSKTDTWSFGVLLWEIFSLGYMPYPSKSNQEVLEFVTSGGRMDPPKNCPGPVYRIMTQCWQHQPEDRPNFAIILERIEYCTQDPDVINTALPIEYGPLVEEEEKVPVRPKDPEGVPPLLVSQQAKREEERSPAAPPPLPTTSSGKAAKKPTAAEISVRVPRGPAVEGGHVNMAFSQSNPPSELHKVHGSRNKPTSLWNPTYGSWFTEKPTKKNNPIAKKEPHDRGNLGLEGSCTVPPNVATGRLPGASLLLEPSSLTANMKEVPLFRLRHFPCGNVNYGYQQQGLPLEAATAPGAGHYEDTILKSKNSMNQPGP
Chain of ABL (P00519 whole entry): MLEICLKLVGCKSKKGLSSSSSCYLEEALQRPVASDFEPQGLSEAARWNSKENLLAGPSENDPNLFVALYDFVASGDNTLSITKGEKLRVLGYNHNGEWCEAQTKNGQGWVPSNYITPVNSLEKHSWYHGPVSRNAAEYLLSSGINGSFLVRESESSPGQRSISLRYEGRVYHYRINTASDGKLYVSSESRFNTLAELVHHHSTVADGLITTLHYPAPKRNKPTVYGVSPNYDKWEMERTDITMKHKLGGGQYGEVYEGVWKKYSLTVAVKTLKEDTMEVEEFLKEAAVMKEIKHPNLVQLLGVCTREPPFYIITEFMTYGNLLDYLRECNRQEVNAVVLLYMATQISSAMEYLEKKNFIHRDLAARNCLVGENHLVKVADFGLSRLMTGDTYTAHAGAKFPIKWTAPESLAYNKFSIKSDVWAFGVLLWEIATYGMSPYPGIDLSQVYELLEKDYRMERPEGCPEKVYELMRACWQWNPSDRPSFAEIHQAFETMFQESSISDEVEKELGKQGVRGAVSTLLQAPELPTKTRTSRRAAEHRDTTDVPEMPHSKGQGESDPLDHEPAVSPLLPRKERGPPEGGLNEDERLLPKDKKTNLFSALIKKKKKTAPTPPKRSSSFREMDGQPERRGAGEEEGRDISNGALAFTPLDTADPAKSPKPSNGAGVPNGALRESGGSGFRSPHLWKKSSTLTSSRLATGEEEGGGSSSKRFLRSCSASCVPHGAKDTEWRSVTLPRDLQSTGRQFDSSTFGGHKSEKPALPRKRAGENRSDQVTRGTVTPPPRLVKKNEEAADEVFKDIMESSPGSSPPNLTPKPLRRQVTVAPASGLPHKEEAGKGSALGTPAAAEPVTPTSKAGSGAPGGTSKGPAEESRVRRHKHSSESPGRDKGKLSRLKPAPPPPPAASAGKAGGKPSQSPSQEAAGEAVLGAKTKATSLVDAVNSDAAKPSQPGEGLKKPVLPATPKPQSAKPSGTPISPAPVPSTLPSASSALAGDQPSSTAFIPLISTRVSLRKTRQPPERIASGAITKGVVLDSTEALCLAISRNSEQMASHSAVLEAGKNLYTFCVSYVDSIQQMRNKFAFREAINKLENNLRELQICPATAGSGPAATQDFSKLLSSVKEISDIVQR
Chain of PBK (Q96KB5 whole entry, species assumed): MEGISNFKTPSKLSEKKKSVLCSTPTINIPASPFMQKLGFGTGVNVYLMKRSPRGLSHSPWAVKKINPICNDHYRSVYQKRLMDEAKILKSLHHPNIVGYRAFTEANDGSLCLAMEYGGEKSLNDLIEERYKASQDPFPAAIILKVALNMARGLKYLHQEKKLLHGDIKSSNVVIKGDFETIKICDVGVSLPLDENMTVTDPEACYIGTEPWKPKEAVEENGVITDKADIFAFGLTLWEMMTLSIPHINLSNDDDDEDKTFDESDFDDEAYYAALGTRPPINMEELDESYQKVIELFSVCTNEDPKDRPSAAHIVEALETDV

Question: Which “% Inhibition at 10 μM of the test compound” value (ALK(L1152insT)) does the source give for CCC1(c2ccccc2)C2=C(CC(C)(C)CC2=O)Nc2ncsc21 (stereo not drawn) [Compound 1, 9-Ethyl-6,6-dimethyl-9-phenyl-5,6,7,9-tetrahydrothiazolo[4,5-b]quinolin-8(4H)-one] here?
Answer: The value was −2.3%.

Question: And the inhibition at 10 µM (BRAF(V600E)_Cascade)?
Answer: The inhibition at 10 µM was 6.1%.

Question: What about the inhibition at 10 µM (PAK2) of the same molecule?
Answer: Its inhibition at 10 µM is -15.7%.

Question: What about the inhibition at 10 µM (CHK2) of the same molecule?
Answer: Its inhibition at 10 µM is 3.3%.

Question: What about the inhibition at 10 µM (PLK2) of the same molecule?
Answer: Its inhibition at 10 µM is 1.7%.

Question: What about the inhibition at 10 µM (RET) of the same molecule?
Answer: The inhibition at 10 µM was -1.9%.

Question: And the inhibition at 10 µM (EPHA1)?
Answer: The inhibition at 10 µM was 2%.

Question: And the inhibition at 10 µM (PKCζ)?
Answer: The inhibition at 10 µM was 0.5%.

Question: And the inhibition at 10 µM (MUSK)?
Answer: The inhibition at 10 µM was 0%.

Question: What about the inhibition at 10 µM (IRAK1) of the same molecule?
Answer: The inhibition at 10 µM was -8.9%.

Question: And the inhibition at 10 µM (HIPK4)?
Answer: The inhibition at 10 µM was -12.5%.

Question: What about the inhibition at 10 µM (CaMK2γ) of the same molecule?
Answer: The inhibition at 10 µM was -5.2%.

Question: And the inhibition at 10 µM (JNK3)?
Answer: The inhibition at 10 µM was 3.1%.

Question: What about the inhibition at 10 µM (PDHK2) of the same molecule?
Answer: Its inhibition at 10 µM is 0.1%.

Question: What about the inhibition at 10 µM (JNK1) of the same molecule?
Answer: The inhibition at 10 µM was -7.3%.

Question: What about the inhibition at 10 µM (AMPKα2/β1/γ1) of the same molecule?
Answer: Its inhibition at 10 µM is -4.1%.

Question: What about the inhibition at 10 µM (p38δ) of the same molecule?
Answer: Its inhibition at 10 µM is 18%.

Question: What about the inhibition at 10 µM (ABL) of the same molecule?
Answer: The inhibition at 10 µM was -2.7%.

Question: And the inhibition at 10 µM (HIPK2)?
Answer: Its inhibition at 10 µM is -2.5%.

Question: And the IC50 (CDK2/CycE1)?
Answer: Its IC50 is 8.52 µM.

Question: And the inhibition at 10 µM (CDK2/CycE1; [1])?
Answer: Its inhibition at 10 µM is 53.4%.

Question: And the IC50 (CDK3/CycE1)?
Answer: The IC50 was 6.22 µM.

Question: And the inhibition at 10 µM (CDK3/CycE1; [1])?
Answer: Its inhibition at 10 µM is 55.5%.

Question: And the inhibition at 10 µM (SPHK1)?
Answer: Its inhibition at 10 µM is -6.5%.

Question: And the inhibition at 10 µM (SPHK2)?
Answer: The inhibition at 10 µM was -0.8%.

Question: What about the inhibition at 10 µM (IRAK4) of the same molecule?
Answer: Its inhibition at 10 µM is -1.2%.

Question: And the inhibition at 10 µM (FGFR1)?
Answer: The inhibition at 10 µM was -5%.

Question: And the inhibition at 10 µM (skMLCK)?
Answer: The inhibition at 10 µM was 9.7%.

Question: And the inhibition at 10 µM (KIT(T670I))?
Answer: The inhibition at 10 µM was -4.2%.

Question: What about the inhibition at 10 µM (PKD1) of the same molecule?
Answer: Its inhibition at 10 µM is 1%.

Question: And the inhibition at 10 µM (AurA)?
Answer: Its inhibition at 10 µM is 0.4%.

Question: What about the inhibition at 10 µM (MELK) of the same molecule?
Answer: The inhibition at 10 µM was 1.6%.

Question: And the inhibition at 10 µM (MAP3K2_Cascade)?
Answer: Its inhibition at 10 µM is 3.4%.

Question: What about the inhibition at 10 µM (BMX) of the same molecule?
Answer: Its inhibition at 10 µM is -10.6%.

Question: What about the inhibition at 10 µM (PBK) of the same molecule?
Answer: The inhibition at 10 µM was 0.8%.

Question: What about the inhibition at 10 µM (FGFR4(V550L)) of the same molecule?
Answer: The inhibition at 10 µM was 3.3%.

Question: What about the inhibition at 10 µM (ALK) of the same molecule?
Answer: The inhibition at 10 µM was -3.1%.

Question: And the inhibition at 10 µM (TIE2)?
Answer: Its inhibition at 10 µM is 11.1%.

Question: And the “% Inhibition at 10 μM of the test compound” value (RAF1_Cascade)?
Answer: Its value is −6.7%.

Question: What about the inhibition at 10 µM (TAK1-TAB1_Cascade) of the same molecule?
Answer: Its inhibition at 10 µM is 8%.

Question: What about the inhibition at 10 µM (DYRK1A) of the same molecule?
Answer: The inhibition at 10 µM was -5.8%.

Question: What about the inhibition at 10 µM (TRKB) of the same molecule?
Answer: Its inhibition at 10 µM is 16%.
